Measurements reported in ChEMBL document CHEMBL1201862, “PubChem BioAssay data set” (2004).
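Dose response: 5 concentrations. Exposure: 48 h. Format: 96-well plates. Endpoint: linear interpolation; highest concentration if not reached. Here, GI50 denotes the concentration required for 50% inhibition of growth.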 Activity calls are given as the source filed them. No stated cut-off is given here; in the data, active = GI50 up to about 1.1 µM and inactive = higher.

How the values were obtained:
Test in all cases: NCI anticancer screen, dose series, 48 h
786-0 = tested on: 786-0
SR = tested on: SR
OVCAR-3 = tested on: OVCAR-3
HCT-116 = tested on: HCT-116
TK-10 = tested on: TK-10
HCT-15 = tested on: HCT-15
EKVX = tested on: EKVX
SNB-19 = tested on: SNB-19
MDA-MB-435 = tested on: MDA-MB-435
SF-295 = tested on: SF-295
KM12 = tested on: KM12
RXF 393 = tested on: RXF 393
SK-MEL-5 = tested on: SK-MEL-5
NCI-H522 = tested on: NCI-H522
HT-29 = tested on: HT-29
SF-268 = tested on: SF-268
MDA-MB-231 = tested on: MDA-MB-231
DU-145 = tested on: DU-145
SK-MEL-2 = tested on: SK-MEL-2
M19-MEL = tested on: M19-MEL

SMILES	GI50 (786-0)	GI50 (SR)	GI50 (OVCAR-3)	GI50 (HCT-116)	GI50 (TK-10)	GI50 (HCT-15)	GI50 (EKVX)	GI50 (SNB-19)	GI50 (MDA-MB-435)	GI50 (SF-295)	GI50 (KM12)	GI50 (RXF 393)	GI50 (SK-MEL-5)	GI50 (NCI-H522)	GI50 (HT-29)	GI50 (SF-268)	GI50 (MDA-MB-231)	GI50 (DU-145)	GI50 (SK-MEL-2)	GI50 (M19-MEL)
COc1cc(-c2cc(O)c(-c3ccc4ccccc4n3)c(O)n2)cc(OC)c1OC	34.4 µM (inactive)	1.77 µM (inactive)	12.4 µM (inactive)	19 µM (inactive)	69.7 µM (inactive)	29 µM	> 52 µM (inactive)	> 75.7 µM (inactive)	2.07 µM (inactive)	21.9 µM (inactive)	14.8 µM (inactive)	39.9 µM (inactive)	15.1 µM (inactive)	13.2 µM (inactive)	18.6 µM (inactive)	43 µM (inactive)	36.6 µM (inactive)	44.9 µM (inactive)	32.2 µM (inactive)	
O=C1Nc2ccccc2C1(O)Cc1ccccn1 (stereo not drawn)	> 100 µM (inactive)	> 100 µM (inactive)	> 100 µM (inactive)	> 100 µM (inactive)	> 100 µM (inactive)	> 100 µM	> 100 µM (inactive)	> 100 µM (inactive)	> 100 µM (inactive)	> 100 µM (inactive)	> 100 µM (inactive)	> 100 µM (inactive)	> 100 µM (inactive)	> 100 µM (inactive)	> 100 µM (inactive)	> 100 µM (inactive)	> 100 µM (inactive)	> 100 µM (inactive)	> 100 µM (inactive)	
COc1ccc([C@H]2C=C(c3cc(F)c(Cl)cc3Cl)NC(=S)N2)cc1	33.6 µM (inactive)	5.24 µM (inactive)	33.7 µM (inactive)	27 µM (inactive)	32.7 µM (inactive)	28.7 µM	28 µM (inactive)	61 µM (inactive)	12.8 µM (inactive)	24.3 µM (inactive)	29.2 µM (inactive)	18.8 µM (inactive)	11.9 µM (inactive)	31.8 µM (inactive)	26.2 µM (inactive)	48.5 µM (inactive)	27.2 µM (inactive)	39.9 µM (inactive)	25.1 µM (inactive)	
NC(CCCC(N)P(=O)(O)O)P(=O)(O)O (stereo not drawn)	> 100 µM (inactive)		> 100 µM (inactive)	> 100 µM (inactive)	> 100 µM (inactive)	> 100 µM	> 100 µM (inactive)			> 100 µM (inactive)	> 100 µM (inactive)	> 100 µM (inactive)	> 100 µM (inactive)	> 100 µM (inactive)	> 100 µM (inactive)					> 100 µM (inactive)
COc1nc(=O)n(COC(CO)CN2C(=O)c3ccccc3C2=O)cc1Cc1cccc(OCc2ccccc2)c1 (stereo not drawn)	> 10 µM (inactive)		21.9 µM (inactive)	29.4 µM (inactive)	27 µM (inactive)	28.2 µM	33.8 µM (inactive)	29.6 µM (inactive)		22.1 µM (inactive)	28.2 µM (inactive)		15.7 µM (inactive)		34 µM (inactive)				15.4 µM (inactive)	20.7 µM (inactive)
Cc1ccc2nc(N/N=C/c3cccc(C)n3)cc(C)c2c1	16.2 µM (inactive)	16.4 µM (inactive)	14 µM (inactive)	14.7 µM (inactive)	14.7 µM (inactive)	14.2 µM	16.6 µM (inactive)	20.5 µM (inactive)	15.7 µM (inactive)	15.4 µM (inactive)	12.7 µM (inactive)	16.5 µM (inactive)	17.2 µM (inactive)	17.6 µM (inactive)	12.3 µM (inactive)	17.2 µM (inactive)	18.6 µM (inactive)	17.3 µM (inactive)	18.8 µM (inactive)	
CN(C(=O)Cc1ccc(Cl)c(Cl)c1)[C@@H]1CCCC[C@H]1[N+]1(C)CC=CC1	> 100 µM (inactive)	> 100 µM (inactive)	> 100 µM (inactive)	> 100 µM (inactive)	> 100 µM (inactive)	> 100 µM	> 100 µM (inactive)	> 100 µM (inactive)	> 100 µM (inactive)	> 100 µM (inactive)	> 100 µM (inactive)	> 100 µM (inactive)	> 100 µM (inactive)	> 100 µM (inactive)	> 100 µM (inactive)	> 100 µM (inactive)	> 100 µM (inactive)	> 100 µM (inactive)	> 100 µM (inactive)	
NC1=NCC(CN2CCOCC2)O1 (stereo not drawn)	> 100 µM (inactive)	> 100 µM (inactive)	> 100 µM (inactive)	> 100 µM (inactive)	> 100 µM (inactive)	> 100 µM	> 100 µM (inactive)	> 100 µM (inactive)	> 100 µM (inactive)	> 100 µM (inactive)	> 100 µM (inactive)	> 100 µM (inactive)	> 100 µM (inactive)	> 100 µM (inactive)	> 100 µM (inactive)	> 100 µM (inactive)	> 100 µM (inactive)	> 100 µM (inactive)	> 100 µM (inactive)	
COc1ccc(NC(=O)CC(=O)N2N=C(c3ccccc3)C(/N=N/c3ccc(S(=O)(=O)CCOS(=O)(=O)O)cc3)C2=O)cc1 (stereo not drawn)	> 100 µM (inactive)	> 100 µM (inactive)	> 100 µM (inactive)	> 100 µM (inactive)	> 100 µM (inactive)	> 100 µM	> 100 µM (inactive)	> 100 µM (inactive)	> 100 µM (inactive)	> 100 µM (inactive)	> 100 µM (inactive)	> 100 µM (inactive)	> 100 µM (inactive)	> 100 µM (inactive)	> 100 µM (inactive)	> 100 µM (inactive)	> 100 µM (inactive)	> 100 µM (inactive)	> 100 µM (inactive)	
C=C1CCC[C@@H](C)C(O)[C@@H]2OC(=O)C(=C)[C@@H]2C[C@@H](OC(C)=O)[C@@]2(C)CC[C@@H]1O2 (stereo partly drawn)	8.95 µM (inactive)	1.75 µM (inactive)	5.37 µM (inactive)	6.97 µM (inactive)	7.96 µM (inactive)	3.78 µM	7.62 µM (inactive)	45.2 µM (inactive)	7.71 µM (inactive)	11.1 µM (inactive)	7.76 µM (inactive)	6.49 µM (inactive)	6.92 µM (inactive)	0.916 µM (active)	8.47 µM (inactive)	7.8 µM (inactive)	8.36 µM (inactive)	7.66 µM (inactive)	8.34 µM (inactive)	
CN(C)c1ccc(/C=C2\C[C@H]3[C@@H]4CC=C5C[C@@H](N6CCCC6)CC[C@]5(C)[C@H]4CC[C@]3(C)[C@H]2O)cc1	0.659 µM (active)	0.773 µM (active)	1.15 µM (inactive)	0.897 µM (active)	1.24 µM (inactive)	1.57 µM	1.83 µM (inactive)	1.5 µM (inactive)	1.35 µM (inactive)	1.13 µM (inactive)	2.24 µM (inactive)	0.966 µM (active)	0.923 µM (active)	1.11 µM (active)	1.1 µM (active)	0.989 µM (active)	0.973 µM (active)	3.05 µM (inactive)	1.07 µM (active)	
O=C1N/C(=N\N=C\c2ccccc2)C2(CCCCC2)O1	64.9 µM (inactive)	16.3 µM (inactive)	44.9 µM (inactive)	59.2 µM (inactive)	74.6 µM (inactive)	46.9 µM	> 100 µM (inactive)	> 100 µM (inactive)	> 100 µM (inactive)	55.1 µM (inactive)	> 100 µM (inactive)	> 100 µM (inactive)	55.8 µM (inactive)	> 100 µM (inactive)	78 µM (inactive)	> 100 µM (inactive)	> 100 µM (inactive)	> 100 µM (inactive)	> 100 µM (inactive)	
COC(=O)Nc1nc2cc(S(=O)(=O)N3CCOCC3)ccc2[nH]1	> 100 µM (inactive)	51.1 µM (inactive)	> 100 µM (inactive)	> 100 µM (inactive)	80.2 µM (inactive)	> 100 µM	> 100 µM (inactive)	> 100 µM (inactive)	26.4 µM (inactive)	> 100 µM (inactive)	65.5 µM (inactive)	> 100 µM (inactive)	> 100 µM (inactive)	> 100 µM (inactive)	> 100 µM (inactive)	> 100 µM (inactive)	> 100 µM (inactive)	> 100 µM (inactive)	> 100 µM (inactive)	
O=C1Nc2ccccc2/C1=C\c1c(Cl)[nH]c2ccccc12	0.935 µM (active)	0.292 µM (active)	0.592 µM (active)	0.745 µM (active)	1.35 µM (inactive)	0.608 µM	1.06 µM (active)	0.764 µM (active)	0.208 µM (active)	0.287 µM (active)	0.397 µM (active)	0.869 µM (active)	0.414 µM (active)	0.736 µM (active)	0.222 µM (active)	1.12 µM (active)	1.45 µM (inactive)	3.35 µM (inactive)	1.11 µM (active)	
CC(C)=CCC[C@](C)(O[C@@H]1O[C@H](CO)[C@@H](O)[C@H](O)[C@H]1O)[C@H]1CC[C@]2(C)[C@@H]1[C@H](O)C[C@@H]1[C@@]3(C)CC[C@H](O)C(C)(C)[C@@H]3[C@@H](O[C@@H]3O[C@H](CO)[C@@H](O)[C@H](O)[C@H]3O)C[C@]12C [GINSENOSIDE RG1]	> 100 µM (inactive)	> 100 µM (inactive)	> 100 µM (inactive)	> 100 µM (inactive)	> 100 µM (inactive)	> 100 µM	> 100 µM (inactive)	> 100 µM (inactive)	> 100 µM (inactive)	> 100 µM (inactive)	> 100 µM (inactive)	> 100 µM (inactive)	> 100 µM (inactive)	> 100 µM (inactive)	> 100 µM (inactive)	> 100 µM (inactive)	> 100 µM (inactive)	> 100 µM (inactive)	> 100 µM (inactive)	
